The source of these data is US20080113956A1, “Substituted Porphyrins” (priority 1997, published 2008).

Data set [1] in a line: SOD-like activity in vitro (xanthine/xanthine oxidase, ferricytochrome c; McCord and Fridovich). The data set is classed as biochemical. The following applies: for rate of dismutation (kcat): Example VII. Here is the method: (§1) SOD activity can be monitored in the presence and absence of EDTA using the method of McCord and Fridovich (J. Biol. Chem. 244:6049 (1969)). The efficacy of a mimetic can also be determined by measuring the effect of the mimetic on the aerobic growth of a SOD null E. coli strain versus a parental strain lacking the specific mutations. Specifically, parental E. coli (AB1157) and SOD null E. coli. (JI132) can be grown in M9 medium containing 0.2% casamino acids and 0.2% glucose at pH 7.0 and 37° C.; growth can be monitored in terms of turbidity followed at 700 nm.
The superoxide dismutase activity of the mimetics of the invention depends on a number of factors, including thermodynamic factors (eg the metal-centered redox-potential see FIG. 1)), and kinetic factors (eg electrostatic facilitation).
Superoxide dismuting activity. The SOD-like activities were measured using the xanthine/xanthine oxidase system as a source of O2^− and ferricytochrome c as its indicating scavenger (McCord et al, J. Biol. Chem. 244:6049 (1969)). O2— was produced at the rate of 1.2 μM per minute and reduction of ferricytochrome c was followed at 550 nm. Assays were conducted in presence of 0.1 mM EDTA in 0.05 M phosphate buffer (pH 7.8). Rate constants for the reaction of the compounds were based upon competition with […] cytochrome c, kcyt c=2.6×10^5 M^−1s^−1 (Butler et al, J. Biol. Chem. 257:10747 (1982)). All measurements were done at 25° C. Cytochrome c concentration was at least 10^3-fold higher than the concentrations of the SOD mimics and the rates were linear for at least two minutes, during which the compounds intercepted ˜100 equivalents of O2^−, thus confirming the catalytic nature of O2^− dismutation in presence of the mimics.
Superoxide dismuting activities. SOD-like activities were measured as described previously, based on competition with cytochrome c (McCord et al, J. Biol. Chem. 244:6049 (1969)). MnClxTE-2-PyP^5+ SOD-like activities are reported in Table 5, IC50 (M) representing the concentration for one unit of activity (or the concentration that causes 50% inhibition of cytochrome c reduction by O2^−) and kcat (M^−1s^−1) representing the rate constant for the superoxide dismutation reaction. The SOD-like activity per mole of MnCl4TE-2-PyP^5 is approximately 2-, 7- and 100-fold higher than MnOBTMPyP^4+, MnTM-2-PyP^5+ and MnTM-4PyP^5+, respectively (Faulkner et al, J. Biol. Chem. 269:23471 (1994); Batinic-Haberle et al, Arch. Biochem. Biophys. 343:225 (1997); Batinic-Haberle et al, J. Biol. Chem. 273:24521 (1998)). The SOD-like activity of MnCl4TE-2-PyP^5+ represents 20% of the activity of the Cu,Zn-SOD enzyme on a molar basis (40% per active site considering that the enzyme has two active sites) (Klug-Roth et al, J. Am. Chem. Soc. 95:2786 (1973)).

A short description of data set [2]: Electrochemistry: metal-centered redox potential. The conditions noted are these: for Redox Potential (E1/2): metal centered, pH 7.8 if not otherwise specified; for redox potential: text of Example VIII, unit not given. The data set is classed as physicochemical. Here is the method:
Electrochemistry. The electrochemical characterization was performed as described previously on a Voltammetric Analyzer Model 600 (CH instrument) using a glassy carbon electrode (Ag/AgCl reference and Pt auxiliary electrodes), at 0.5 mM porphyrin, pH 7.8 (0.05 M phosphate buffer), 0.1 M NaCl. The potentials were standardized against potassium ferricyanide/potassium ferrocyanide couple (Batinic-Haberle et al, Arch. Biochem. Biophys. 343:225 (1997); Kolthof et al, J. Phys. Chem. 39:945 (1974)).
Electrochemistry. The metal-centered redox behavior of all metalloporphyrin products was reversible. The half-wave potentials (E^O1/2) were calculated as the average of the cathodic and anodic peaks and are given in mV vs NHE (Table 5). The average shift per chlorine is +55 mV (Table 5), which is in agreement with the values previously reported for H2TPP derivatives (between −50 and +70 mV) (Sen et al, Chem. Soc. Faraday Trans. 93:4281 (1997); Autret et al. J. Chem. Soc. Dalton Trans. 2793 (1996); Hariprasad et al, J. Chem. Soc. Dalton Trans. 3429 (1996); Tagliatesta et al, Inorg. Chem. 35:5570 (1996); Ghosh, J. Am. Chem. Soc. 117:4691 (1995); Takeuchi et al, J. Am. Chem. Soc. 116:9730 (1994); Binstead et al, Inorg. Chem. 30:1259 (1991); Giraudeau et al, J. Am. Chem. Soc. 101:3857 (1979)). This shift appears to be higher (˜+65 mV) between 0 and 1, and between 2 and 3 chlorines (Table 5). […] The manganese redox state of MnCl4TE-2-PyP^5 (E^O1/2=+448 mV) and MnOBTMPyP^4+ (E^O1.2=+480 mV) is 3+ and 2+, respectively. This difference may be explained by their difference in terms of redox potential (˜30 mV) but also by structural considerations, for instance an increased distortion of the porphyrin ring in the case of MnOBTMPyP^4+. (Batinic-Haberle et al, Arch. Biochem. Biophys. 343:225 (1997); Ochsenbein et al, Angew. Chem. Int. Ed. Engl. 33:348 (1994)).

The subject of data set [3] is SOD null E. coli (JI132). The experiment in a line: Aerobic growth of SOD null E. coli strain versus parental strain. The following applies: for aerobic growth (A700) of SOD null E. coli cells: 20 μM, glucose minimal medium (M9) plus 5 essential amino acids, JI132. The format is cell-based. On the procedure:
FIG. 3. SOD activity in vivo (E. coli) of 1, 2, 3* and 4* (20 μM) in minimal medium (mixture of atropoisomers, JI=SOD deficient strain, AB parental strain).
as §1
The activity in vivo of the mimetics of the invention can be tested on an E. coli strain deleted of the genes coding for both the MnSOD and FeSOD. In this assay, the efficacy of a mimetic is determined by measuring the effect of the mimetic on the aerobic growth of a SOD null E. coli strain versus a parental strain. Specifically, parental E. coli (AB1157) and SOD null E. coli. (JI132) are grown in M9 medium containing 0.2% casamino acids and 0.2% glucose at pH 7.0 and 37° C.; growth is monitored in terms of turbidity followed at 700 nm.

The nature of data set [4]: SOD activity in U/mg (reduction of cytochrome c or photoreduction of NBT). The format is biochemical. The conditions noted are these: for SOD: unit = amount that inhibits one half the reduction of cytochrome c or photoreduction of NBT.

For the molecule `CC[n+]1ccccc1-c1c2nc(c(-c3cccc[n+]3CC)c3ccc([n-]3)c(-c3cccc[n+]3CC)c3nc(c(-c4cccc[n+]4CC)c4ccc1[n-]4)C=C3)C=C2.[Mn+3]` [MnTE-2-PyP^5+, manganic meso-tetrakis-(N-ethylpyridinium-2-yl)porphyrin], the “kcat rate constant for the superoxide dismutation reaction” value in data set [1] (0.1 mM EDTA, 0.05 M phosphate buffer pH 7.8, 25° C.) was 5.7 10^7 M^−1 s^−1. Further, the IC50 in data set [1] (0.1 mM EDTA, 0.05 M phosphate buffer pH 7.8, 25° C., read-out: IC50 concentration that causes 50% inhibition of cytochrome c reduction by O2^−) is 45 nM. Besides, the “E°1/2 half-wave potential” value in data set [2] (vs NHE, 0.5 mM porphyrin, 0.1 M NaCl, 0.05 M phosphate buffer (pH 7.8)) was “+228 mV”. The “aerobic growth (A700) of SOD null E. coli cells” value (“aerobic growth (A700)” for short) in data set [3] is listed as “increase in A700”.

For the molecule “manganese(III) 5,10,15,20-tetrakis(N-methylpyridyl)porphyrin [MnTM-2-PyP^5+]”, the “rate of dismutation (kcat)” value in data set [1] came out at 6e+07 M⁻¹ s⁻¹. Moreover, the “SOD activity in vitro relative to the para compound 1” value in data set [1] (in vitro enzymatic assay) was “more than an order of magnitude more active”. Also, the “Redox Potential (E1/2)” value in data set [2] (vs NHE) is “+0.22 V”. Further, the redox potential entry in data set [2] was “+0.22”. The “aerobic growth (A700)” value in data set [3] (listed as 3) is given as “increase in A700”. The “toxicity in vivo (E. coli)” value in data set [3] (FIG. 3) was “decreased toxicity”. Besides, the “difference in SOD activity, ortho vs para” value in data set [4] (MnTM-2-PyP vs MnTM-4-PyP) is given as “factor of six”. The SOD in data set [4] is given as 8,500 U/mg.

As for “manganese(III) 5,10,15,20-tetrakis(N-methylpyridyl)porphyrin [MnTM-4-PyP^5+, reference compound]”, the “rate of dismutation (kcat)” value in data set [1] was determined as 3.8e+06 M⁻¹ s⁻¹. In addition, the “Redox Potential (E1/2)” value in data set [2] (vs NHE) is recorded as “+0.06 V”. Further, the redox potential entry in data set [2] is “+0.06”. For the same molecule, in data set [2] (vs NHE, listed as 1), the “E1/2 one-electron metal-centered redox-potential” value is on record as “+0.060 V”. In addition, the “half-wave potential (E1/2)” value in data set [2] (vs normal hydrogen electrode (NHE), Example VII) is on record as “+0.060 V”. Further, in data set [3] (listed as 1), the “aerobic growth (A700)” value is on record as “did not show an increase in A700”. Besides, in data set [3] (Example VII), the “growth of SOD-deficient Escherichia coli” value was “inhibited growth”. In addition, the SOD in data set [4] was found to be 547 U/mg.
